# From patent US9618453B2, “Aggregation induced emission of fluorescent bioprobes and methods of using the same” (THE HONG KONG UNIVERSITY OF SCIENCE AND TECHNOLOGY, priority 2011, dated 2017)
# Legend:
# [1] = biological target: bovine serum albumin (BSA) (Bos taurus, UniProt P02769); experiment: SDS-PAGE staining of BSA with TPENCS (prestaining, poststaining), compared with CBB and FITC; settings: for LOD / limit of detection (LOD): BSA on SDS-PAGE gel, CBB restaining of the same gel; for LOD: TPENCS poststaining; for limit of detection (LOD): TPENCS prestaining; for self-quenching effect versus F/P ratio: equal amount of BSA, series of dye concentrations; for LOD on nitrocellulose membrane: after transfer from gel
# Description: The protein samples were treated with denaturizing 4× sample buffer containing 62.5 mM Tris (pH 8.5), 20% (v/v) glycerol, 4% SDS (w/v), and 3% (w/v) DTT for 5 min at 85˜95° C. in Protein Lobind Eppendorf cups. Serial dilutions of the proteins were labeled and loaded onto the gel lanes. Electrophoresis was carried out on self-cast polyacrylamide mini-gels (1 mm thick) using a discontinuous buffer system. The separation gel (pH 8.8) contained 12% polyacrylamide. The stacking gel (pH 6.8) contained 4% polyacrylamide. Both gels have an acrylamide/bis ratio of 37.5:1. The running buffer contained 25 mM Tris (pH 8.6), 192 mM glycine and 0.1% SDS (w/v) in water. All solutions were freshly prepared prior to use. SDS-PAGE was carried out on a vertical polyacrylamide gel system at a current of 15 mA until the protein bands reached the interface of the separating gel. Separation was performed at 100 V for two hours.
# Fluorescence prestaining of proteins for SDS-PAGE gels was applied prior to the denaturation step. About 1 mg of the protein was dissolved in 1 mL of 0.1 M sodium bicarbonate buffer solution (15 μM). 10 μL of TPENCS DMSO stock solution (5 mM) was added to 100 μL protein solution. The pH was optimized to ˜9 by adding 1 M sodium bicarbonate buffer. The reaction mixture was incubated for 2 h at 37° C. in an Eppendorf Thermomixer. Then, samples were cooled either to room temperature for instant use or frozen for eventual use.
# 2.5 g of Coomassie blue R250 was dissolved in 1000 mL of 50% (v/v) methanol, 10% (v/v) acetic acid, and 40% (v/v) water with stirring as needed. The solution was filtered to remove any insoluble material. The final concentration of Coomassie blue R250 was 0.25% (w/v). After electrophoresis, the apparatus was disassembled and the gel was immerged into CBB solution. The gel was stained at room temperature overnight with gentle agitation. The Coomassie stain was removed by aspiration after staining. The gel was then immerged into the destaining solution composed of 50% (v/v) methanol, 10% (v/v) acetic acid, and 40% (v/v) water which allowed the gel to destain with gentle agitation. The destaining step was repeated several times, removing destaining solution at each change by aspiration. The destaining was continued until the protein bands were seen clearly without any background staining of the gel.
# The protocol of gel fluorescent poststaining with TPENCS was similar to that of the CBB poststaining. The only difference was that the composition of the staining solution was prepared by mixing 1 mL DMSO stock solution of TPENCS (5 mM) with 20 mL 10% SDS aqueous (w/v) solution, and the pH was optimized to ˜9.0 by adding 1 M sodium bicarbonate buffer. The destaining solution was 10% SDS aqueous (w/v) solution. Similar to the destaining protocol of Coomassie brilliant blue, the gel was immerged into the 10% SDS aqueous (w/v) solution and destained with gentle agitation. The destaining solution was changed every two hours and the whole destaining process was finished within six hours.
# Since nearly all kinds of proteins have reactive amine groups (lysine residues) on their molecular chains, bovine serum albumin (BSA), a commonly used protein, was employed as a test sample to verify the staining effect of TPENCS. The prestained BSA was loaded onto the gel lane b and a pure BSA sample was loaded on lane c at the same time as a control. After electrophoresis, the gel fluorescent image was taken under UV excitation within the Gel Doc XR+ documentation system (FIG. 2a). […] The gel was then introduced to the poststaining procedure and the fluorescent image was again obtained (FIG. 2b).
# [2] = Photoluminescence in THF/water mixtures with different water fractions (aggregation induced emission); assay type: physicochemical
# Text: The AIE of TPENCS is illustrated in FIG. 1. […] With water content ranging from 0-70%, the fluorescence intensity remained at a very low level. When the water concentration was in the 80-90 vol % range, a rapid and dramatic increase of the fluorescence intensity with increasing water content was observed (FIG. 1b). The PL intensity of TPENCS in the water/THF solution with a water fraction of 90 vol % was approximately 50-fold higher than that in the mixture with 70% water. The quantum efficiency of TPENCS was 52.2% in the solid state.
# Similar to other AIE active molecules, TPEMBR only gave weak emission in good solvents such as THF. […] To quantify the effect of water content on the degree of fluorescent emission enhancement, the photoluminescence intensity of TPEMBR was measured where the fraction of water was increased from 0 to 90 vol %. With the water content in the range of 0-70%, the fluorescent intensity remained at a very low level. With the water fraction reaching the 80-90 vol % range, a rapid and dramatic increase of the fluorescent intensity was observed (FIG. 9b). The photoluminescence intensity of TPEMBR in the water/THF solution with a water fraction of 90 vol % was approximately 50-fold stronger than that in the mixture with 70% water. In the solid state, the quantum efficiency of TPEMBR was determined to be 31.7%.
# The AIE of SITC is illustrated in FIGS. 17a and 17b. The wavelength at maximum absorption of SITC was at 363 nm and the emission maximum was at 490 nm. […] To quantify the effect of water content on the elevation of the fluorescent emission, the photoluminescence intensity of SITC was measured with concentration of water increasing from 0 to 90 vol %. With water content ranging from 0-70%, the fluorescent intensity remained at a very low level. When the water concentration was in the 80-95 vol % range, a rapid and dramatic increase of the fluorescent intensity with increasing water content was observed (FIG. 17b). The photoluminescence intensity of SITC in the water/THF solution with a water fraction of 95 vol % was approximately 50-fold higher than that in the mixture with 70% water. The quantum efficiency of SITC was 45.8% in the solid state.
# (§1) Tetrahydrofuran (THF; Labscan) was distilled under nitrogen from sodium benzophenone ketyl immediately prior to use. Acrylamide was purchased from Bio-Rad. Aminoallyl-dUTP (aa-dUTP), dNTPs, DNase I (RNase-free), DNA Polymerase I, Klenow Fragment exo-, Random Hexamer Primer, Long PCR Enzyme Mix and GeneJET™ PCR Purification Kit, GeneRuler™ 100 bp Plus DNA Ladder (ready-to-use, 100-3000 bp), 6×DNA Loading Dye were purchased from Fermentas (Thermo Scientific). Deep VentR™ exo-DNA Polymerase was purchased from New England Biolabs (NEB). Synthesized oligonucleotides (primers) were purchased from Tech Drogon Limited. GelRed™ Nucleic Acid Gel Stain (10000× in water) was purchased from Biotium. Other chemicals, reagents and solvents were all purchased from Aldrich or Invitrogen. ^1H and ^13C NMR spectra were measured on a Bruker ARX 400 NMR spectrometer using CDCl3 as solvent. High-resolution mass spectra (HRMS) were taken on a Finnigan TSQ 7000 triple quadrupole spectrometer in a MALDI-TOF mode. UV spectra were measured on a Milton Roy Spectronic 3000 Array spectrophotometer. Fluorescence (FL) spectra were recorded on a Perkin-Elmer LS 55 spectrofluorometer. FL quantum yields (ΦF) of amorphous powders of siloles were measured using C-701 Time-Resolved Spectrofluorometer with the integrating sphere as accessory.
# Structure of dye is confirmed by standard spectroscopic methods (FIGS. 23, 26a, and 27a). In order to confirm TPEITC is AIE-active, we investigated its fluorescence in THF/water mixtures with different water fractions. […] TPEITC molecules with hydrophobic aromatic cores precipitated and became aggregate in the nonsolvent mixture. Aggregation blocks the nonradiative relaxation channels and populates the radiative decay, thus resulting in high luminescence. […]
# [3] = Fluorescence quantum efficiency in the solid state; assay type: physicochemical
# Text: as §1
# [4] = UV absorption of SITC for DOL calculation (Beer-Lambert law); assay type: physicochemical
# Description: The 1061 bp template DNA was a PCR product of plasmid DNA. dTTP was replaced with increasing amount of SITC-dUTP. DOL of labeled DNA (number of dyes per 100 bases) were calculated from UV absorption base on Beer-Lambert law. The calculated molar extinction coefficient (ε) of SITC is 10277 cm^−1M^−1 and its correction factor (CF) is 2.08.
# BSA (35 Cys) = BSA (35 Cys) (Bos taurus, UniProt P02769); experiment: Fluorescent labeling of Cys residues of protein with TPEMBR, SDS-PAGE; parameters: species or system bovine; settings: series of dye/thiol ratios
# Description: 2.5 μL Tris-HCl (1 M), 2.5 μL TCEP (20 mM), 5 μL BSA (1 mg/mL, 15 μM), and 30 μL urea (8 M in water) was added to a 1.5 mL Eppendorf tube and mixed well. The mixture was incubated at room temperature for 30 min to pre-reduce the disulfide bonds with TCEP. Then, 10 μL of the TPEMBR DMSO stock solution (2.5 mM 5×) was added to the system and made the final volume 50 μL. The reaction mixture was incubated for 3 hours at 50° C. in an Eppendorf Thermomixer. Then, samples were cooled either to room temperature for instant use or frozen for eventual use.
# In order to ensure that the Cys residues were sufficiently labeled with TPEMBR, a longer reaction time (usually overnight) at or below room temperature was required. Alternatively, the reaction time could be reduced if labeling was carried out at 50° C. To verify the time-dependence of labeling efficiency, bovine serum albumin (BSA) samples were labeled with TPEMBR for different times ranging from 10 min to 4 h and analyzed by SDS-PAGE. The fluorescence intensity of the labeled BSA increased as the reaction time was extended. The maximum intensity under specific labeling conditions was observed after 3 h and remained unchanged even with an additional 1 h of reaction time (FIGS. 11a and 11b). […] The time-dependent labeling effect provides a way to determine the desirable DOL according to different applications by simply controlling the labeling time. Meanwhile, a lower temperature labeling process with a longer reaction time could be a better choice to obtain fluorescent proteins while maintaining their native structures.
# BSA samples were subjected to labeling with different dye concentrations. The SDS-PAGE fluorescence intensity of labeled BSA increased with increasing dye concentration. […] Further increasing the dye concentration could give higher fluorescence intensity due to nonspecific labeling. Clearly, the DOL of protein samples can be controlled by varying the dye concentration.
# Specific labeling of Cys residues by TPEMBR was examined through the labeling of proteins with different Cys contents. BSA (35 Cys), yeast enolase (single Cys) and horse myoglobin (0 Cys) were labeled with 0.5 mM of TPEMBR, respectively. The corresponding fluorescent products were analyzed on gel. […] The results further confirmed the specificity of TPEMBR to Cys residue when the working concentration of 0.5 mM was used.
# BSA was labeled by each dye with a series of varying dye/thiol ratios. After the electrophoresis, the gel fluorescent image was taken under UV excitation and the fluorescence intensity was obtained from three independent experiments. Fluorescence intensities normalized with the sample with the lowest dye concentration are plotted versus the dye/thiol ratio (FIG. 16). […] This self-quenching effect is inevitable for self-quenching dyes such as 5-BMF and limits these dyes' application on quantification of proteins. In contrast, detection and quantification of proteins with high contents of Cys can be easily achieved by using AIE active molecules such as TPEMBR.
# Chain of bovine serum albumin (BSA) (P02769 25-607): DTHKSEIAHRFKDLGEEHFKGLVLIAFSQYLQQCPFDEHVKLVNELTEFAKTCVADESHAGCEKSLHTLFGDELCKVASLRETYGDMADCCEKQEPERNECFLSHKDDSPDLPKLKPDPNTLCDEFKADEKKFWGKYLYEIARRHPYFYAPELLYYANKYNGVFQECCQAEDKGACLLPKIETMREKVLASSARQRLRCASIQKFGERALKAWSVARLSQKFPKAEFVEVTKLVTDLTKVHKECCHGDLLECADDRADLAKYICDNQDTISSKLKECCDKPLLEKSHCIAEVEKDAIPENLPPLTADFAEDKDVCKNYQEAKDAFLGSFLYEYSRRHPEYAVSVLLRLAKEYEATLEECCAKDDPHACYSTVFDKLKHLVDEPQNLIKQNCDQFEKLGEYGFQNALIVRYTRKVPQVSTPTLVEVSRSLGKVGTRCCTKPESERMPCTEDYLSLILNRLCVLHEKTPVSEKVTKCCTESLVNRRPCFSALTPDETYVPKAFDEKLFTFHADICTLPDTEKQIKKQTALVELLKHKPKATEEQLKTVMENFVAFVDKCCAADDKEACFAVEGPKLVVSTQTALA
# Chain of BSA (35 Cys) (P02769 25-607): as above
compound,measurement,setting,value
"CCOc1ccc(Nc2ccc(C(=C3C=CC(=[N+](CC)Cc4cccc(S(=O)(=O)[O-])c4)C=C3)c3ccc(N(CC)Cc4cccc(S(=O)(=O)[O-])c4)cc3)cc2)cc1.[Na+] [CBB, reference compound]",LOD,[1],remained the same
same,limit of detection (LOD),[1],0.2 µg
"fluorescein isothiocyanate [FITC, reference compound]",self-quenching effect versus F/P ratio,[1]; prestaining,1000 times
S=C=NCc1ccc(C(=C(c2ccccc2)c2ccccc2)c2ccccc2)cc1 [TPEITC],fluorescence intensity (I) relative to pure THF solution (I0),"[2]; THF/water mixture, water content 90 vol %",about 36177 fold
"S=C=NCc1ccc(C(=C(c2ccccc2)c2ccc(CN=C=S)cc2)c2ccccc2)cc1 [TPENCS, 1,2-bis[4-(isothiocyanatemethyl)phenyl]-1,2-diphenylethene]",LOD,[1],0.1 µg
same,limit of detection (LOD),[1],0.2 µg
same,LOD on nitrocellulose membrane,[1]; poststaining,1 µg
same,effect on protein migration,[1]; prestained versus poststained BSA bands,no significant effect on protein migration rate
same,LOD on nitrocellulose membrane,[1]; prestaining,2 µg
same,self-quenching effect versus F/P ratio,[1]; prestaining,kept increasing
same,PL intensity relative to the mixture with 70% water,"[2]; water/THF solution, water fraction 90 vol %",approximately 50 fold
same,quantum efficiency,[3],52.2%
"C[Si]1(C)C(c2ccc(CN=C=S)cc2)=C(c2ccccc2)C(c2ccccc2)=C1c1ccc(CN=C=S)cc1 [SITC, 1,1-dimethyl-2,5-bis[4-(isothiocyanatemethyl)phenyl]-3,4-diphenyl silole]",calculated molar extinction coefficient (ε),[4],10277 cm^−1M^−1
same,correction factor (CF),[4],2.08
same,emission maximum,[2],490 nm
same,wavelength at maximum absorption,[2],363 nm
same,photoluminescence intensity relative to the mixture with 70% water,"[2]; water/THF solution, water fraction 95 vol %",approximately 50 fold
same,quantum efficiency,[3],45.8%
"O=C1OC2(c3ccc(O)cc3Oc3cc(O)ccc32)c2ccc(CBr)cc21 [5-BMF, reference compound]",self-quenching effect versus dye/thiol ratio,BSA (35 Cys),30 times
